Results as given in US10322118B2, “Compounds and methods for inhibiting Cif virulence factor” (priority 2012, dated 2019).
Like-named read-outs stand apart in the source and are kept apart here.

Columns and labels:
Cif [1] = target: T1, Cif (Pseudomonas aeruginosa (strain UCBPP-PA14), UniProt A0A0H2ZD27); assay: Fluorescent-based Cif inhibitory assay (CMNGC)
Source text: Cyano (6-methoxynaphthalen-2-yl) methyl glycidyl carbonate (CMNGC) was used as a fluorescent reporter substrate.
Reported IC50 values are the average of triplicates with at least two data points above and at least two below the IC50.

Cif [2] = target: T1, Cif; assay: Screen of soluble epoxide hydrolase inhibitors for Cif inhibition; format: biochemical
Procedure: To identify additional inhibitors of the Cif enzyme, further screening assays were conducted.

[3] = Table 17 (R6-R9 series), CMNGC, average of triplicates
[4] = Table 18 (biphenyl R series), CMNGC, average of triplicates

T1 sequence (A0A0H2ZD27 25-319 limits assumed): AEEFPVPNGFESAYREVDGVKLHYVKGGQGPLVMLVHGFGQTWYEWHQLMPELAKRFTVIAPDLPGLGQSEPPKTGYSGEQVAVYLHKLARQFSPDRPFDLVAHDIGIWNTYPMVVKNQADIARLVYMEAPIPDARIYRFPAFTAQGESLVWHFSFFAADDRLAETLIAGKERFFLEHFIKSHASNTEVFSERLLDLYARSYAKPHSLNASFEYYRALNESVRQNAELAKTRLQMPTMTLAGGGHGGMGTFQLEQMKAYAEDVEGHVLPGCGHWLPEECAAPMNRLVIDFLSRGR

Row | SMILES | IC50 (Cif [1]; [3]) [µM] | IC50 (Cif [1]; [4]) [µM] | further results
1 | CCOC(=O)CC(=O)Nc1cc(Br)c(Oc2cccc(C(C)C)c2)c(Br)c1 [Compound 1g] | > 50 | – | Cif inhibitory activity at 50 μM (Cif [1]): fail to show inhibitory activity
2 | CCOC(=O)CC(=O)Nc1cc(Br)c(Oc2ccc(OC)c(C(C)C)c2)c(Br)c1 [Compound 1h] | > 50 | – | Cif inhibitory activity at 50 μM (Cif [1]): fail to show inhibitory activity
3 | CCOC(=O)CC(=O)Nc1cc(Cl)c(Oc2ccc(O)c(C(C)C)c2)c(Cl)c1 [Compound 1i] | 3.8 | – | –
4 | CCOC(=O)CC(=O)Nc1ccc(Oc2ccc(O)c(C(C)C)c2)c(Cl)c1 [Compound 1j] | 11.6 | – | –
5 | CCOC(=O)CC(=O)Nc1cc(Cl)c(Oc2ccc(O)cc2)c(Cl)c1 [Compound 1k] | > 50 | – | Cif inhibitory activity at 50 μM (Cif [1]): showed no inhibition
6 | CCOC(=O)CC(=O)Nc1cc(Cl)c(Oc2ccc(O)c(Br)c2)c(Cl)c1 [Compound 1l] | 4.9 | – | –
7 | CCOC(=O)CC(=O)Nc1cc(Cl)c(Oc2ccc(O)c(I)c2)c(Cl)c1 [Compound 1m] | 3.8 | – | –
8 | CCOC(=O)CC(=O)Nc1cc(Cl)c(Oc2ccc(O)c(C(F)(F)F)c2)c(Cl)c1 [Compound 1n] | 3 | – | –
9 | C#Cc1cc(Oc2c(Cl)cc(NC(=O)CC(=O)OCC)cc2Cl)ccc1O [Compound 1p] | 2.9 | – | –
10 | CCOC(=O)CC(=O)Nc1cc(Cl)c(Oc2ccc(O)cc2Br)c(Cl)c1 [Compound 1q] | 29.3 | – | –
11 | CCC(=O)Nc1cc(Cl)c(Oc2ccc(O)c(-c3ccc(C(=O)O)cc3)c2)c(Cl)c1 [Compound 8b] | – | 10.5 | –
12 | CCC(=O)Nc1cc(Cl)c(Oc2ccc(O)c(-c3cccc(C(N)=O)c3)c2)c(Cl)c1 [Compound 8d] | – | 0.46 | –
13 | CCC(=O)Nc1cc(Cl)c(Oc2ccc(O)c(-c3ccc(C#N)cc3)c2)c(Cl)c1 [Compound 8e] | – | 11.9 | –
14 | CCC(=O)Nc1cc(Cl)c(Oc2ccc(O)c(-c3cccc(C#N)c3)c2)c(Cl)c1 [Compound 8f] | – | 0.58 | –
15 | CCC(=O)Nc1cc(Cl)c(Oc2ccc(O)c(-c3ccc(C(=O)NC)cc3)c2)c(Cl)c1 [Compound 8g] | – | 1.7 | –
16 | CCC(=O)Nc1cc(Cl)c(Oc2ccc(O)c(-c3ccc(NC(N)=O)cc3)c2)c(Cl)c1 [Compound 8i] | – | 0.29 | –
17 | CCC(=O)Nc1cc(Cl)c(Oc2ccc(O)c(-c3ccc(C(C)=O)cc3)c2)c(Cl)c1 [Compound 8k] | – | 0.35 | –
18 | CCC(=O)Nc1cc(Cl)c(Oc2ccc(O)c(-c3ccc(S(N)(=O)=O)cc3)c2)c(Cl)c1 [Compound 8l] | – | 2 | –
19 | CCC(=O)Oc1ccc(NC(=O)NC23CC4CC(CC(C4)C2)C3)cc1 [Entry 1] | – | – | inhibition at 10 µM (Cif [2]): 41%
20 | Cc1cc(C)cc(NC(=O)NC(=O)c2c(F)cccc2F)c1 [Entry 3] | – | – | inhibition at 10 µM (Cif [2]): 39%
21 | NC(Cc1ccc(Oc2ccc(O)c(I)c2)c(I)c1)C(=O)O (stereo not drawn) [Entry 4] | – | – | IC50 (Cif [1]): 80 ± 10 µM
